In US20180319810A1, “SUBSTITUTED BRIDGED UREA ANALOGS AS SIRTUIN MODULATORS” (GlaxoSmithKline Intellectual Property (No.2) Limited, priority 2014, published 2018):

Molecular target: T1, SIRT1 (Homo sapiens, UniProt Q96EB6)
T1 sequence (Q96EB6 1-747): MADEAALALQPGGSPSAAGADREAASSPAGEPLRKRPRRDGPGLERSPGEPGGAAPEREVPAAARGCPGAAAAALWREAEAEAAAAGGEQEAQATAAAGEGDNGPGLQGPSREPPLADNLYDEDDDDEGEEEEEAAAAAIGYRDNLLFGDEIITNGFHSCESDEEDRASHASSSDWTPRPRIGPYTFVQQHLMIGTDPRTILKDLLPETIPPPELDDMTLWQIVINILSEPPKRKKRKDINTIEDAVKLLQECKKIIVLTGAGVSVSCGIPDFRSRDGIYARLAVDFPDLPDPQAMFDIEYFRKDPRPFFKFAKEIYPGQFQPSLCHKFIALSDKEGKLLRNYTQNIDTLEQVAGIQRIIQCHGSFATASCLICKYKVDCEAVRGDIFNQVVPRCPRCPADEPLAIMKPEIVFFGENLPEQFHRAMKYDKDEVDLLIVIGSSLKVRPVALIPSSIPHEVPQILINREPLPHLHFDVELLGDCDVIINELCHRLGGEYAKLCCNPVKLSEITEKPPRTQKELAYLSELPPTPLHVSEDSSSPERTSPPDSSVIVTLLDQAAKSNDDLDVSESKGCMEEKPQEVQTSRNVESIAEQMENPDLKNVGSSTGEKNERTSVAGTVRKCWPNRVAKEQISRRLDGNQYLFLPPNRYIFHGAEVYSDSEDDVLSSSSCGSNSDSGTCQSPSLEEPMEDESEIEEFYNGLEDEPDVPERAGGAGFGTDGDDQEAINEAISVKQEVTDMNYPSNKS
Assay: Trp mass spectrometry assay of SIRT1 activation
Format: biochemical
Conditions: Trp peptide Ac-R-H-K-K(Ac)-W-NH2 0.5 μM, 120 μM βNAD+, 10 nM SIRT1, 25 min, 25° C.

SMILES | TRP Activity (EC1.5, concentration of compound required to increase SIRT1 activity by 50% over control) | TRP MAX RESP (percent maximum fold activation relative to control)
O=C(NCC(F)(F)F)c1ncc2c(n1)N(C(=O)Nc1ccccn1)[C@H]1CCCN2C1 [Example 62, (9S)—N10-(pyridin-2-yl)-N2-(2,2,2-trifluoroethyl)-8,9-dihydro-6H-5,9-methanopyrimido[4,5-b][1,4]diazocine-2,10(7H)-dicarboxamide] | A (EC1.5<1 μM) | A (Fold activation ≥150%)
C[C@@H](NC(=O)c1ncc2c(n1)N(C(=O)Nc1cc(OC[C@H](O)CO)ncn1)[C@H]1CCCN2C1)C(F)(F)F [Example 77, (9S)—N10-(6-((R)-2,3-dihydroxypropoxy)pyrimidin-4-yl)-N2-((R)-1,1,1-trifluoropropan-2-yl)-8,9-dihydro-6H-5,9-methanopyrimido[4,5-b][1,4]diazocine-2,10(7H)-dicarboxamide] | B (EC1.5 1-25 μM) | A (Fold activation ≥150%)
CC(C)NC(=O)N1c2nc(-c3cccc(C(F)(F)F)c3)ncc2N2CC[C@H]1C2 [Example 30, (8S)—N-isopropyl-2-(3-(trifluoromethyl)phenyl)-7,8-dihydro-5,8-methanopyrimido[4,5-b][1,4]diazepine-9(6H)-carboxamide] | B (EC1.5 1-25 μM) | A (Fold activation ≥150%)
O=C(Nc1cc(OC[C@@H](O)CO)ccn1)N1c2nc(-c3cccc(C(F)(F)F)c3)ncc2N2CCC[C@H]1C2 [Example 91, (9S)—N-(4-((S)-2,3-dihydroxypropoxy)pyridin-2-yl)-2-(3-(trifluoromethyl)phenyl)-8,9-dihydro-6H-5,9-methanopyrimido[4,5-b][1,4]diazocine-10(7H)-carboxamide] | A (EC1.5<1 μM) | A (Fold activation ≥150%)
O=C(NC1CC1)c1ncc2c(n1)N(C(=O)Nc1ccccn1)[C@H]1CCCN2C1 [Example 116, (9S)—N2-cyclopropyl-N10-(pyridin-2-yl)-8,9-dihydro-6H-5,9-methanopyrimido[4,5-b][1,4]diazocine-2,10(7H)-dicarboxamide] | C (EC1.5>25 μM) | A (Fold activation ≥150%)
Cc1nc(-c2cccc(C(F)(F)F)c2)nc2c1N1CCC[C@@H](C1)N2C(=O)Nc1cncc(OC[C@H](O)CO)c1 [Example 107, (9S)—N-(5-((R)-2,3-dihydroxypropoxy)pyridin-3-yl)-4-methyl-2-(3-(trifluoromethyl)phenyl)-8,9-dihydro-6H-5,9-methanopyrimido[4,5-b][1,4]diazocine-10(7H)-carboxamide] | A (EC1.5<1 μM) | A (Fold activation ≥150%)
O=C(Nc1ccccn1)N1c2nc(-c3cccc(C(F)(F)F)c3)ncc2N2CCC[C@H]1C2 [Example 86, (9S)—N-(pyridin-2-yl)-2-(3-(trifluoromethyl)phenyl)-8,9-dihydro-6H-5,9-methanopyrimido[4,5-b][1,4]diazocine-10(7H)-carboxamide] | A (EC1.5<1 μM) | –
O=C(Nc1cncc(OC[C@H](O)CO)c1)N1c2nc(-c3cccc(C(F)(F)F)c3)ncc2N2CCC[C@H]1C2 [Example 81, (9S)—N-(5-((R)-2,3-dihydroxypropoxy)pyridin-3-yl)-2-(3-(trifluoromethyl)phenyl)-8,9-dihydro-6H-5,9-methanopyrimido[4,5-b][1,4]diazocine-10(7H)-carboxamide] | A (EC1.5<1 μM) | A (Fold activation ≥150%)
O=C(NC1CC1)N1c2nc(-c3cccc(C(F)(F)F)c3)ncc2N2CC[C@H]1C2 [Example 15, (8S)—N-cyclopropyl-2-(3-(trifluoromethyl)phenyl)-7,8-dihydro-5,8-methanopyrimido[4,5-b][1,4]diazepine-9(6H)-carboxamide] | A (EC1.5<1 μM) | A (Fold activation ≥150%)
O=C(Nc1ncc(OC[C@@H](O)CO)cn1)N1c2nc(-c3cccc(C(F)(F)F)c3)ncc2N2CC[C@H]1C2 [Example 43, (8S)—N-(5-((S)-2,3-dihydroxypropoxy)pyrimidin-2-yl)-2-(3-(trifluoromethyl)phenyl)-7,8-dihydro-5,8-methanopyrimido[4,5-b][1,4]diazepine-9(6H)-carboxamide] | B (EC1.5 1-25 μM) | A (Fold activation ≥150%)
O=C(Nc1ccc(OC[C@H](O)CO)nc1)N1c2nc(-c3cccc(C(F)(F)F)c3)ncc2N2CC[C@H]1C2 [Example 39, (8S)—N-(6-((R)-2,3-dihydroxypropoxy)pyridin-3-yl)-2-(3-(trifluoromethyl)phenyl)-7,8-dihydro-5,8-methanopyrimido[4,5-b][1,4]diazepine-9(6H)-carboxamide] | A (EC1.5<1 μM) | A (Fold activation ≥150%)
C[C@@H](NC(=O)c1ncc2c(n1)N(C(=O)Nc1cccc(OC[C@H](O)CO)n1)[C@H]1CCCN2C1)C(F)(F)F [Example 78, (9S)—N10-(6-((R)-2,3-dihydroxypropoxy)pyridin-2-yl)-N2-((R)-1,1,1-trifluoropropan-2-yl)-8,9-dihydro-6H-5,9-methanopyrimido[4,5-b][1,4]diazocine-2,10(7H)-dicarboxamide] | B (EC1.5 1-25 μM) | A (Fold activation ≥150%)
O=C(Nc1ccnc(OC[C@@H](O)CO)n1)N1c2nc(-c3cccc(C(F)(F)F)c3)ncc2N2CC[C@H]1C2 [Example 17, (8S)—N-(2-((S)-2,3-dihydroxypropoxy)pyrimidin-4-yl)-2-(3-(trifluoromethyl)phenyl)-7,8-dihydro-5,8-methanopyrimido[4,5-b][1,4]diazepine-9(6H)-carboxamide] | B (EC1.5 1-25 μM) | A (Fold activation ≥150%)
O=C(Nc1ccnc(O[C@H]2CCOC2)n1)N1c2nc(-c3cccc(C(F)(F)F)c3)ncc2N2CC[C@H]1C2 [Example 25, (8S)—N-(2-(((S)-tetrahydrofuran-3-yl)oxy)pyrimidin-4-yl)-2-(3-(trifluoro-methyl)phenyl)-7,8-dihydro-5,8-methanopyrimido[4,5-b][1,4]diazepine-9(6H)-carboxamide] | B (EC1.5 1-25 μM) | A (Fold activation ≥150%)
O=C(Nc1ncc(OC[C@H](O)CO)cn1)N1c2nc(-c3cccc(C(F)(F)F)c3)ncc2N2CCC[C@H]1C2 [Example 105, (9S)—N-(5-((R)-2,3-dihydroxypropoxy)pyrimidin-2-yl)-2-(3-(trifluoromethyl)phenyl)-8,9-dihydro-6H-5,9-methanopyrimido[4,5-b][1,4]diazocine-10(7H)-carboxamide] | A (EC1.5<1 μM) | A (Fold activation ≥150%)
Cc1nc(C(=O)N[C@H](C)C(F)(F)F)nc2c1N1CCC[C@@H](C1)N2C(=O)Nc1ccc(OC[C@@H](O)CO)nn1 [Example 74, (9S)—N10-(6-((S)-2,3-dihydroxypropoxy)pyridazin-3-yl)-4-methyl-N2-((R)-1,1,1-trifluoropropan-2-yl)-8,9-dihydro-6H-5,9-methanopyrimido[4,5-b][1,4]diazocine-2,10(7H)-dicarboxamide] | B (EC1.5 1-25 μM) | A (Fold activation ≥150%)
O=C(Nc1nccc(OC[C@H](O)CO)n1)N1c2nc(-c3cccc(C(F)(F)F)c3)ncc2N2CCC[C@H]1C2 [Example 100, (9S)—N-(4-((R)-2,3-dihydroxypropoxy)pyrimidin-2-yl)-2-(3-(trifluoromethyl)phenyl)-8,9-dihydro-6H-5,9-methanopyrimido[4,5-b][1,4]diazocine-10(7H)-carboxamide] | A (EC1.5<1 μM) | A (Fold activation ≥150%)
